Laboratory results from US20230117920A1, “Library Construction Method, Cyclic Peptide, FXIIa Binder and IFNGR1 Binder” (The University of Tokyo, priority 2019, published 2023).
Positions of bridges follow the written chain, without caps; N, C: chain ends. Non-standard residues stand in square brackets, D forms with d. Residues, ends and D or L forms follow the SMILES beside them.

Columns and labels:
[1] = target: T1, interferon γ receptor 1 (IFNGR1) (Homo sapiens, UniProt P15260); conditions: SPR, 25° C., 1:1 interaction model
Target sequence in this assay (P15260 18-245 limits assumed): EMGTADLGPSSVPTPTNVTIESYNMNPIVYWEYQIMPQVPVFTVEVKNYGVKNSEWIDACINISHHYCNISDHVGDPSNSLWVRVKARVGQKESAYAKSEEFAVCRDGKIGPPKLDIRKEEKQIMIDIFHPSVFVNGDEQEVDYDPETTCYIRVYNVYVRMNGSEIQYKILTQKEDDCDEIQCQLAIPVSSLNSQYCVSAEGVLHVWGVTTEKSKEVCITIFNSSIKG
Experimental: Recombinant biotinylated human FXIIa was purchased from Molecular Innovations. The recombinant human IgG1 Fc and Fc labeled human IFNGR1 were purchased from R&D systems and AcroBiosystems, respectively.
The binding kinetics of those peptides to FXIIA and IFNGR1 was analyzed by surface plasmon resonance. […] The binding affinity was analyzed at 25° C. by SPR by using a Biacore T200 apparatus (GE Healthcare). The peptides, each used at five different concentrations, were injected at a floe rate of 30 μL/min and the rate constant was measured by single cycle kinetics method. The binding sensorgrams thus obtained were analyzed using a Biacore evaluation software and was fitted to a standard 1:1 interaction model.

[2] = target: T1, interferon γ receptor 1 (IFNGR1); assay: biochemical; conditions: read-out: ka

In the case of `CC(C)[C@@H]1NC(=O)CNC(=O)[C@H](Cc2ccccc2)NC(=O)[C@@H](Cc2ccc(O)cc2)NC(=O)CSC[C@H](C(N)=O)NC(=O)[C@H]([C@@H](C)O)NC(=O)[C@H](CCCNC(=N)N)NC(=O)[C@H](CC(N)=O)NC(=O)[C@H](Cc2ccc(O)cc2)NC(=O)[C@H](Cc2ccccc2)NC(=O)[C@H](C)NC(=O)[C@H](CCCNC(=N)N)NC1=O` [I1-1A] ({CH2CO}-[dY]FGVRAFYNRT[dC]-NH2; thioether N-12), the kd [1] is reported as 4.12 10^−2 · s^−1 and the kon [2] is reported as 20000 M⁻¹ s⁻¹.
